Test results as given in a melting point compilation (Tetko et al.; mined from patent text by program, amines drawn as free bases though some values may be those of a salt).

Structure (SMILES)	melting point
CC(C)(C)OC(=O)N[C@]1(C)CC[C@H](CS(=O)(=O)c2ccc(S(C)(=O)=O)cc2)C1(C)C	200 to 203 °C
O=C(NCC12CC3CC(CC(C3)C1)C2)c1cc(O)ccc1Cl	263 to 264 °C
COC(CC1=C(C#N)C(c2cccc3nonc23)c2c[nH]nc2N1)OC (centres undefined)	115 °C
COc1ccc(OC(=O)C2CCCc3ccc([N+](=O)[O-])cc32)cc1 (centres undefined)	109 to 110 °C
CN1CCN(c2c(F)cc3c(=O)c(C(=O)O)cn(-c4ccc(O)cc4)c3c2F)CC1	> 300 °C
O=[N+]([O-])c1ccc(O)c(CO)c1	112 to 114 °C
COC(=O)C1=C(Cc2ccccc2)C(=O)NCC1	104 to 108 °C
O=C(N[C@H]1CC[C@H](CCN2CCN(c3nccc4c3CCO4)CC2)CC1)C1(O)CC1	174 °C
COc1ccc(C2=NN(c3ccccc3)C(c3ccc([N+](=O)[O-])cc3)C2)cc1 (centres undefined)	168 to 173 °C
Cc1ccc2c(c1)C(=O)c1ccc(-c3nnn[nH]3)cc1S2(=O)=O	267 °C
O=C(Nc1ccc(CN2CCCCC2)cc1)C(Br)C(Br)c1ccc(-c2ccc(Cl)cc2)cc1 (centres undefined)	145 to 150 °C
O=C(Nc1ccc(-n2nc(C3CC3)cc2C2CC2)c(F)c1)c1c(F)cccc1F	182 to 186 °C
CCC1CC2C3CCC4=CC(=O)CCC4=C3C=CC2(C)C1O (centres undefined)	139 to 141 °C
CCCn1ccnc(S(=O)(=O)Cc2ccc(Cl)cc2)c1=O	125 to 128 °C
CCC1(CCCCN2CCN(c3ccc(Cl)cc3)CC2)C(=O)Nc2c(Cl)cc(Cl)cc21 (centres undefined)	152 to 154 °C
c1ccc2c(c1)Cn1ccnc1CN2	164 to 170 °C
Cc1ccc(-c2ccc3c(c2)C=C(C(=O)Nc2ccc(CN(CCO)CCO)cc2)CC3)cc1	150 to 151 °C
Fc1c(F)c(F)c(OC2(c3ccccc3)CCN(Cc3ccccc3)CC2)c(F)c1F	80 to 83 °C
C=Cc1cc(O)cc2nc(-c3ccc(O)c(F)c3)oc12	249 to 251 °C
Cc1ccc2nc(-c3ccc4nc(N)sc4c3)sc2c1	250 to 251 °C

Structure (SMILES)	melting point
C=C(C)C(=O)NCc1cc(C)c(O)c(C)c1	136 to 138 °C
CCCCCCCCC#CCCCCCCCC(=O)Nc1nc(CC(=O)O)cs1	95.5 to 96.5 °C
Cn1ncc(C2=CC(=O)CCC2)c1S(N)(=O)=O	160 to 165 °C
COc1cc2c(cc1Nc1ncc(Cl)c(Nc3ccc(C(N)=O)cc3OC)n1)CCN(CC(=O)N(C)C)CC2	113 to 131 °C
CN1CCN(c2cc(Cl)cc3c2c(=O)n(Cc2ccccc2Cl)c(=O)n3Cc2ccccc2)CC1	87 to 92 °C
Cc1ccc(C(=O)/C=C/C(=O)O)o1	159 to 162 °C
CSC(=NCCSCc1ncccc1Cl)NC#N	120 to 121 °C
N#Cc1cc(-c2ccoc2)c2ccc(OCc3cccc(-c4ccc(Cl)cc4)n3)cc2c1	174 to 177 °C
O=[N+]([O-])c1cnn2c1NCCC2	251 to 252 °C
Cc1ccccc1-c1c(C(=O)O)c(=O)n(C)c2cc3c(cc12)CCC3	231 to 232 °C
C=C(C)CN1Cc2cc(Cl)cc3[nH]c(=S)n(c23)[C@@H](C)C1	171 °C
CCC(=O)N(CC)c1cccc(-c2ccc(Cl)nn2)c1	118 to 119 °C
Cc1cc2c(c(C)c1S(=O)(=O)C[N+](=O)[O-])CCCO2	136 to 138 °C
C(=Cc1nc(CNc2ccc(CCCCn3ccnn3)cc2)co1)c1ccc2c(c1)OCO2	130 to 131 °C
Cc1nnc(CNc2c(C)cccc2C)o1	134 to 135 °C
O=[N+]([O-])c1ccc(C2=NCCCN2)cc1	168 to 172 °C
Cc1ccccc1Nc1nc(N)nc2c(C)cccc12	118 to 120 °C
COc1ccc2c(c1)C=C(C(=O)N1CCN(C(=O)c3cc(OC)c(OC)c(OC)c3)CC1)CCO2	110 to 115 °C
CCCn1c(=O)c2[nH]c(/C=C/c3cccs3)nc2n(CCC)c1=O	270 °C
c1ccc2c(c1)nc(Nc1ccc3cn[nH]c3c1)c1nc(C3CCCC3)[nH]c12	235 to 236 °C

Structure (SMILES)	melting point
Cc1cc(OC(F)(F)F)cc2sc(N)nc12	162 °C
C=CCSc1nsc(S)n1	107 to 108 °C
COc1ccc2nnc3ccc(OC)cc3c2c1	170 to 172 °C
COc1cc(C)c2ccc(N)nc2n1	233 to 236 °C
CC(=O)NC[C@H]1CN(c2cc(F)c(N3CCC(Cc4noc(C)n4)CC3)c(F)c2)C(=O)O1	134 to 136 °C
CCOC(=O)[C@@H]1Cc2ccc([N+](=O)[O-])cc2CN1	94 to 95 °C
CCc1nn2c(-c3ccc(Cl)cc3Cl)nc(C)nc2c1C(CC)CC	91 to 93 °C
COC(=O)[C@H]1[C@@H]2CC[C@@](NC(=O)OC(C)(C)C)(C(=O)O)[C@@H]21	164 to 165 °C
CC(C)(C)OC(=O)NCCOC(=O)COc1ccc(CCCCNC(N)=NC(=O)c2nc(Cl)c(N)nc2N)cc1	80 to 82 °C
O=C(O)c1ccc(-c2ccc3cc(OCc4ccccc4)c(C45CC6CC(CC(C6)C4)C5)cc3c2)cc1O	263 to 264 °C
CC(C)c1ccc(NC(=O)OC(C)(C)C)c(N)c1	100 to 101 °C
CC(C)(C)OC(=O)CC1CCC(=O)Nc2ccccc21 (centres undefined)	101 to 103 °C
CCOC(=O)C=Cc1c(OC)cncc1OC	100 to 101 °C
c1ccc2oc(-c3ccc(-c4nc5ccccc5o4)cc3)nc2c1	318 to 328 °C
NC(=O)CCn1c(=S)sc2ccc(Cl)cc21	215 to 217 °C
COc1cc2c(c(-c3cccc(Cl)c3Cl)c1)OC(CN)C2 (centres undefined)	159 to 161 °C
O=c1c2ccccc2c(Br)cn1C1CN2CCC1CC2 (racemic)	208 to 209 °C
C[C@H]1Cn2c(=O)[nH]c3ccc(Br)c(c32)CN1C(=O)OC(C)(C)C	229 °C

The remaining lines, values ahead:

melting point	Structure (SMILES)
191 to 192 °C	CCCCc1nc2ccccc2n1Cc1ccc(C(=O)O)c(C)c1
81 to 82 °C	CCc1nc(-c2ccc(OCCn3ccnc3)cc2)no1
182 °C	Cn1cccc1C(=O)NCCN1CCC(Nc2nc3ccccc3n2Cc2ccc(CO)o2)CC1
92 to 94 °C	CN1CCC(c2ccc(OC(C)(C)CO)cc2)c2ccccc21 (centres undefined)
254 to 256 °C	COCCNC(=O)c1cc2c(nc(C)n2C)c2c1CCC(c1ccccc1)O2 (centres undefined)
110 to 112 °C	CCCC(=O)c1cnc2cc(COC(=O)c3ccccc3)ccc2c1Nc1ccccc1C
179 to 180 °C	CCCc1nc2ccccc2n1Cc1ccc(C2CCCC2C(=O)O)cc1 (centres undefined)
164 to 166 °C	OCc1ccccc1-c1ccc2nc(-c3ccc(Cl)cc3)cn2c1
116 to 118 °C	COc1ccc(-c2ccc(C#N)cc2C(F)(F)F)cc1C=O
45 to 47.5 °C	c1ccc(COc2ccc(C3CO3)nc2)cc1 (centres undefined)
204 to 206 °C	O=C(CCn1cnc2c(=O)[nH]cnc21)NCCc1c[nH]c2ccccc12
46.1 to 48.9 °C	CN1c2ccccc2CC1COc1ccc(CC2SC(=O)NC2=O)cc1 (centres undefined)
201 to 205 °C	Cc1cccc(-c2[nH]c(C(C)C)nc2-c2ccc(F)c(-c3ncc[nH]3)c2)n1
179 to 182 °C	CC(C)c1n[nH]c2c(NCc3ccco3)ncnc12
216 °C	O=C1OC(c2ccccc2)C2CCc3cc(O)ccc3N12 (centres undefined)
141 to 148 °C	N[C@@H](Cc1ccccc1)C(=O)N(CC1CC(Cl)=NO1)C(=O)OCc1ccccc1 (some centres undefined)
187 to 189 °C	NC(=O)N(O)CCNC(=O)Cc1ccccc1Nc1c(Cl)cccc1Cl
161 to 162 °C	O=C(CCl)Nc1ccc2c(c1NC(=O)CSc1ccccc1)C(=O)c1ccccc1C2=O
224 to 227 °C	OC1=C(C(=S)Nc2ccccc2)c2nc3ccccc3n2CC1
119 to 123 °C	O=C1CCc2c(Oc3ccc([N+](=O)[O-])cn3)cccc21
76 to 78 °C	CC(C#N)(c1ccccc1)c1ccc([N+](=O)[O-])cc1 (centres undefined)

melting point	Structure (SMILES)
202 to 203 °C	O=S(=O)(Nc1ncnc(Cl)c1Cc1cccc2ccccc12)c1ccc(Cl)cc1
< 50 °C	CCCCc1nn2cccc(C(=O)OCC)c2c1C(=O)c1ccc(Br)cc1
132 to 133 °C	CC(C)c1nn(-c2ccc(C(F)(F)F)cn2)cc1CCCOc1ccccc1CC(=O)O
101 to 103 °C	O=[N+]([O-])c1cccnc1NCC(O)c1ccccc1 (centres undefined)
118 to 119 °C	CCCC[C@H](NC(=O)[C@H](CC(C)C)NC(=O)c1ccccc1C)C(=O)CSCc1ccco1
242 to 243 °C	COc1cccc(OC)c1C(=O)NC(=S)NNC(=O)c1cnc2ccccc2c1
147 °C	CC1=C(CNC(=O)NCCCN(C)C)c2cc(F)ccc2/C1=C\c1ccc(S(C)(=O)=O)cc1
112 °C	CN1CCC(CC(=O)N2c3ccccc3C(=O)Nc3cccc(Cl)c32)CC1
167 to 168 °C	CCCc1c(C#N)c(-c2ccc(C#N)cc2)c(C)n1Cc1cnc(Cl)c(COC(=O)CCC(=O)O)c1
86 to 88 °C	COc1c(Nc2ncc3ccc(-c4ccccc4N(C)S(C)(=O)=O)n3n2)ccc(N2CCN(C[C@H](C)O)CC2)c1F
132 to 134 °C	O=S(=O)(Cc1ccccc1)c1cccc2c1ccn2-c1ccnc(N[C@H]2CC[C@H](O)CC2)n1
210 to 212 °C	CN(C(=O)c1sc2cc(C(=O)O)ccc2c1S)c1ccc2sc3ccccc3c(=O)c2c1
178 to 183 °C	CC(C)n1cc(Cc2cc3cccc(-c4cccc(C(=O)NCCO)c4)c3s2)ccc1=O
272 to 273 °C	COc1cc(OC)c2c(=O)[nH]c(-c3ccc(OCCO)c(-c4cccc(S(C)=O)c4)n3)nc2c1 (centres undefined)
95 to 120 °C	COC(=O)C1Oc2ccccc2C(C)c2ccccc2O1 (centres undefined)
222 to 226 °C	Cn1cnc(C(=O)N2CCC(NC(=O)Nc3ccc(C(F)(F)F)cc3)CC2)c1
75.6 to 76.2 °C	CCCCCCCCCCCCNC(=O)c1cc(Br)c(OCCn2ncnn2)c(-c2cccc(C(F)(F)F)c2)c1
174 to 177 °C	CCCc1nc(C(C)(O)CC)c(C(=O)O)n1Cc1ccc(-c2ccccc2-c2nnn[nH]2)cc1 (centres undefined)
97 to 98 °C	C#CCOc1cc(-c2ncc(C(F)(F)F)cc2Cl)c(F)cc1Cl
> 260 °C	O=C(O)c1cnc(N2CCC(NS(=O)(=O)c3ccc4ccccc4c3)CC2)nc1
